Reference: patent US20260240805A1, “ENTACTOGEN-ASSISTED THERAPY FOR ALCOHOL USE DISORDER AND ADDICTION-RELATED CONDITIONS AND COMORBIDITIES” (Solvonis Therapeutics Ireland Holdings Limited, priority 2021, published 2026)
“Also recorded” adds a separate entry of the source. Where two headings read alike, the source gives them in different places.

Columns and labels:
AUD = conditions: early uncontrolled studies; cited from earlier work
[1] = cited from earlier work
CYP3A4 = CYP3A4 (Homo sapiens, UniProt P08684); conditions: single dose of MDMA of 1.5 mg/kg; cited from earlier work
[2] = cited from earlier work; remark: listed apart in the source
[3] = doses of 100-125 mg; cited from earlier work
patients with AUD [4] = assay: Adverse events and tolerability (Example 8); format: in vivo, human
Description: This Example details an open-label, within-subjects, safety and tolerability feasibility study that was conducted in 14 patients aged 18-65 years old diagnosed with AUD who had recently undergone detoxification, and received MDMA-assisted therapy.
(§1) Dosing with MDMA occurred twice during the eight-week course on weeks 3 and 6.

[5] = cited from earlier work; remark: listed apart in the source
patients with AUD [6] = assay: PHQ-9, GAD-7, psychosocial functioning and quality of life measures (Example 8); format: in vivo, human
patients with AUD [7] = assay: Suicidality, C-SSRS (Example 8); format: in vivo, human; conditions: during the course of the study
From the text: (§2) Following the end of the eight-week therapeutic course, participants carried out additional follow-up questionnaires.
Suicidality. Participants underwent the C-SSRS at screening, baseline, throughout the eight-week therapy course, in the week after each MDMA session and at the three-, six-, and nine-month follow-up visits.

patients with AUD [8] = assay: Drinking behavior (TLFB, units of alcohol per week), open-label MDMA-assisted therapy study in AUD post-detox (Example 8); format: in vivo, human
[9] = tested on: patients diagnosed with AUD; assay: Depression and anxiety levels, FIG. 3 and FIG. 4; format: in vivo, human; conditions: patients remaining at 9 months; 100% at screening
Description: Prior to undergoing the disclosed methods, specifically during the screening session, 12 patients were assessed for levels of depression. […] Directly after going through the detoxification process (noted as “baseline” in FIG. 3), one patient had mild depression, two had moderate depression, zero had moderately severe depression, and two had severe depression (out of 11 patients remaining in the study). The patients were then reassessed at 3, 6, and 9 months post-baseline (i.e., after completing a detoxification course, and prior to beginning the MDMA-assisted therapy regimen), wherein it was discovered that, at 3 months, two had mild depression, one had moderate depression, three had moderately severe depression, and one had severe depression (out of 9 patients remaining in the study); at 6 months, no patients suffered from mild or moderate depression, two had moderate severe depression, and one had severe depression (out of 6 patients remaining in the study); finally, at 9 months, one patient had mild depression, one had moderate depression, and one had moderate severe depression, with none having severe depression.
Prior to undergoing the disclosed methods, specifically during the screening session, 12 patients were assessed for levels of anxiety. […]

patients with AUD [10] = assay: Physiological measures, SUDS and Drug Effects during MDMA sessions (Example 8); format: in vivo, human
Description: as §1
Physiological and tolerability effects during MDMA sessions: In total, 26 drug-assisted psychotherapy sessions with MDMA were administered during the trial. Temperature, blood pressure and heart rate were measured at t=0, before taking MDMA, then half-hourly up to t=2 hours, then hourly thereafter for a minimum of 6-hours from the time of dosing (see FIG. 7).
Subjective Units of Distress (SUDS) and Participant report of Drug Effects were also measured, hourly, throughout the MDMA sessions (see FIG. 7). […] Participants gave their own subjective score (0-10) of whether they felt Drug Effects, and the therapists also recorded their own objective score of how “altered” the participant appeared. There was no significant difference between Observers' and Participants' Drug Effects scores. Drug Effects rose expectedly over the first two hours, with a notable further increase after the booster dose was given at t=2 hours, and a subsequent plateau then decline over the following six hours.

[11] = cited from earlier work; remark: listed apart in the source
patients with AUD [12] = assay: Profile Of Mood States (POMS), seven-day follow-up after MDMA sessions (Example 8); format: in vivo, human; conditions: daily for seven days after each MDMA session; 14 participants, 26 sessions
From the text: as §2
Seven-day follow-up after MDMA sessions: Considerable medical literature and the popular press report the anecdotal observation of ecstasy users experiencing an acute ‘come-down’ effect and a drop in mood in the days after using the drug recreationally. In order to measure this prospectively with clinical MDMA, we measured participants' mood states by daily Profile Of Mood States (POMS) measurements for seven days after each MDMA session (see FIG. 9). Positive scores represent depressed affect, zero represents no change in mood/affect and results below zero represent a positively felt mood.

individuals with PTSD = conditions: cited from earlier work
alcohol relapse = conditions: only in conjunction with psychosocial interventions; cited from earlier work
[13] = nine-month follow-up end point, of 14 participants

Sequence of CYP3A4 (P08684 whole entry): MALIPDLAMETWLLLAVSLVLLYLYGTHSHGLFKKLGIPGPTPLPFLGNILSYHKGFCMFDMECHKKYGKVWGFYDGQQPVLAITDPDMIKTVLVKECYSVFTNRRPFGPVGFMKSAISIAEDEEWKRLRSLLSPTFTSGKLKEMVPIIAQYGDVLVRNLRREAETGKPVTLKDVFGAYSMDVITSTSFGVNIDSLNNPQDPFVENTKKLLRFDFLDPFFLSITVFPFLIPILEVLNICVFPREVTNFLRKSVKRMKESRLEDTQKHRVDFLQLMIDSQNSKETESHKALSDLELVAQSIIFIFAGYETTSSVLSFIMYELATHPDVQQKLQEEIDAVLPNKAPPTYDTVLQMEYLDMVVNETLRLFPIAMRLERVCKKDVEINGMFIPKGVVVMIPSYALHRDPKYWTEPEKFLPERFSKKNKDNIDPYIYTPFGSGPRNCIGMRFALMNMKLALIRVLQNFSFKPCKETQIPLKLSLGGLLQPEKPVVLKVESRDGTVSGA

Q: For `CCN(CC)C(=O)[C@@H]1C=C2c3cccc4[nH]cc(c34)C[C@H]2N(C)C1` [LSD], which abstinence rates (AUD) is on record?
A: 30-50%

Q: For `CNC(C)Cc1ccc2c(c1)OCO2` (stereo not shown) [MDMA base], which solubility in water [1] is on record?
A: insoluble in water

Q: With `CNC(C)Cc1ccc2c(c1)OCO2` (stereo not shown) [MDMA, 1-(1,3-benzodioxol-5-yl)-N-methylpropan-2-amine] as the compound, how does the CYP3A4 activity (CYP3A4) read?
A: decrease in CYP3A4 activity

Q: What about the “time to peak plasma concentration” value ([2]; humans, doses 100-125 mg) of the same compound?
A: 2 to 3 h

Q: And the elimination half-life ([2]; similar results for doses 50-125 mg)?
A: 7 to 9 h

Q: And the “increase in diastolic blood pressure” value [3]?
A: 14.4-25 mmHg

Q: What about the “increase in heart rate” value [3] of the same compound?
A: 26-30 bpm

Q: And the “tolerability of MDMA treatment” value (patients with AUD [4]; AUD post-detox, 187.5 mg each session)?
A: well-tolerated by all participants

Q: What about the “desire to use illicit ecstasy/illicit MDMA” value (patients with AUD [4]; following clinical MDMA) of the same compound?
A: No participants reported any desire to use illicit ecstasy/illicit MDMA

Q: And the psychotic symptoms (patients with AUD [4]; in vivo)?
A: No psychotic symptoms were observed

Q: What about the “time of peak subjective effects” value ([5]; 100 mg MDMA, healthy volunteers, brain imaging studies) of the same compound?
A: 100 min

Q: What about the “duration of subjective effects” value ([5]; 100 mg MDMA, healthy volunteers) of the same compound?
A: approximately 4.5 hours

Q: And the “time of peak subjective effects” value ([5]; Harris 2002)?
A: 90 to 120 min

Q: And the “time to return to baseline values” ([5]; Harris 2002)?
A: 5 to 6 h

Q: What about the “time to subjective effects” value ([5]; Harris 2002) of the same compound?
A: approximately 45 mins

Q: What about the duration of effects ([5]; one dose) of the same compound?
A: 4 to 5 h

Q: And the onset of action ([5]; patients with PTSD, after the initial dose)?
A: 45 to 75 min

Q: And the “time of peak drug effects” value ([5]; patients with PTSD)?
A: 2 to 5 h

Q: What about the duration of effects ([5]; with the booster dose) of the same compound?
A: 5 to 6 h

Q: What about the “PHQ-9 and GAD-7 scores” value (patients with AUD [6]; after screening and baseline time points) of the same compound?
A: reduction in both anxiety and depression

Q: What about the psychosocial functioning (patients with AUD [6]; in vivo) of the same compound?
A: improved across the cohort

Q: What about the “quality of sleep, quality of life, compassion and empathy scales” value (patients with AUD [6]; in vivo) of the same compound?
A: demonstrating benefits and improvements

Q: And the “C-SSRS suicidal ideation, intent or plans or self-harm behavior” value (patients with AUD [7])?
A: No participants reported current suicidal ideation, intent or plans or self-harm behavior

Q: What about the “decrease in alcohol consumption” value (patients with AUD [8]; 3 months post-detox vs pre-detox) of the same compound?
A: 87.1%

Q: What about the “decrease in alcohol consumption” value (patients with AUD [8]; 6 months post-detox vs pre-detox) of the same compound?
A: 71%

Q: And the “units of alcohol per week” value (patients with AUD [8]; 6 months post-detox, 130.6 units per week pre-detox)?
A: 38.0 units of alcohol per week

Q: What about the “decrease in alcohol consumption” value (patients with AUD [8]; 9 months post-detox vs pre-detox) of the same compound?
A: 85.7%

Q: What about the “average units of alcohol consumption per week” value (patients with AUD [8]; 9 months post-detox, 130.6 units per week pre-detox) of the same compound?
A: 18.7 units/week

Q: And the “outcomes of other comorbid addictions (SUDs and BAs)” value (patients with AUD [8]; along the course of treatment)?
A: unexpectedly improved outcomes of other comorbid addictions

Q: What about the “participants drinking fewer than 14 units of alcohol per week” value (patients with AUD [8]; [13]) of the same compound?
A: 11 participants

Q: And the “participants relapsed to drinking more than 14 units of alcohol per week” value (patients with AUD [8]; [13])?
A: three

Q: And the “participants totally abstinent from alcohol” value (patients with AUD [8]; [13])?
A: nine

Q: What about the “participants drinking in excess of 14 units of alcohol a week” value (patients with AUD [8]; over 9 months, 75% in the Outcomes Study without MDMA) of the same compound?
A: 21%

Q: And the “patients found to have anxiety” value [9]?
A: about 67%

Q: And the “patients found to have depression” value [9]?
A: 50%

Q: And the “temperature, blood pressure and heart rate during MDMA sessions” value (patients with AUD [10]; 26 sessions, except for one participant)?
A: remained within normal limits

Q: And the “Drug Effects scores (0-10)” value (patients with AUD [10]; by the end of the MDMA session day)?
A: all drug effects had returned to baseline

Q: What about the “Subjective Units of Distress (SUDS)” value (patients with AUD [10]; hourly during the MDMA session) of the same compound?
A: subsequently reduced during the course of the session

Q: What about the “rise in blood pressure, temperature and heart rate over the course of the MDMA session” value (patients with AUD [10]; in vivo) of the same compound?
A: mild, transient rise

Q: And the neurocognitive impairments (patients with AUD [10]; weeks and months following participation)?
A: No participants reported any significant neurocognitive impairments

Q: And the serious adverse reaction ([11]; 125 mg MDMA, third of three MDMA-assisted sessions, one individual)?
A: increased frequency of ventricular extrasystoles (PVCs)

Q: What about the commonly reported effects ([11]; Phase 1 studies in healthy volunteers) of the same compound?
A: elevation in blood pressure and heart rate, increased anxiety or dysphoria, and dilated pupils

Q: What about the POMS mood disturbance (patients with AUD [12]) of the same compound?
A: no evidence of any mood disturbance; also recorded: sustained a positive mood for seven days

Q: And the “effect size, self-reported improvement” value (individuals with PTSD; 12 subjects, Oehen 2013)?
A: 1.1

Q: What about the “symptom relief, long-term follow-up” value (individuals with PTSD; chronic, treatment-resistant PTSD, Mithoefer 2010, 2013) of the same compound?
A: statistically and clinically-significant gains in symptom relief with no subjects reporting harm

Q: What about the safety and tolerability (individuals with PTSD; phase 3, severe PTSD, even with comorbidities) of the same compound?
A: safe and well-tolerated

Q: And the “efficacy vs therapy with inactive placebo” value (individuals with PTSD; phase 3, severe PTSD, Mitchell 2021)?
A: highly efficacious

Q: Which “effect in relapse prevention” value (alcohol relapse) does the source give for `CC(=O)NCCCS(=O)(=O)O` [acamprosate] here?
A: only minor positive effects in relapse prevention

Q: For `O=C1CC[C@@]2(O)[C@H]3Cc4ccc(O)c5c4[C@@]2(CCN3CC2CC2)[C@H]1O5` [naltrexone], which “effect in relapse prevention” value (alcohol relapse) is on record?
A: only minor positive effects in relapse prevention
